For orientation: IC50 means the point on the concentration scale where inhibition reaches its midpoint. A low value points to higher potency.

Each structure is given as a SMILES string.

This experiment relates to U937 cells. The experiment in a line: Human U937 cellular necroptosis assay. Particulars: U-937; U937 cells stimulated with 25 ng/mL human TNFalpha and 25 μM z-VAD-FMK; 22 hr; Cell Titer-Glo viability. Format: cell-based. As for the experimental part: Human U937 Cellular Necroptosis Assay
The human monocytic cell line U937 (CRL-1593.2) may be purchased from ATCC. The cells are routinely maintained in RPMI-1640 Medium (Gibco, Catalog #11875-093) supplemented with 10% heat inactivated fetal bovine serum (Gibco, Catalog #16140-071), 100 units/mL penicillin and 100 μg/mL streptomycin (Gibco, Catalog #15140-122), in a humidified incubator (37° C., 5% CO2). For the assay, cells are resuspended in RPMI-1640 phenol red free Media (Gibco, Catalog #11835-030) supplemented with 10% fetal bovine serum (Sigma, Catalog #F2442), 100 units/mL penicillin and 100 ug/mL streptomycin. […] Stock solutions of the test compounds are prepared in 100% DMSO (Sigma, Catalog #D2650) and serially diluted 1:3 using 100% DMSO. Compounds are additionally diluted 1:40 in assay medium, and 10 μL/well was transferred to the plate. Following the compound addition, the plate is incubated at 37° C. and 5% CO2 for 22 hr. After 22 hr, viability is assessed with the addition of 20 μL of Cell Titer-Glo 2.0 (Promega, Catalog #G9243). The tissue culture plate is shaken on an orbital shaker at 300 RPM for 15 minutes at room temperature in the dark. Luminescence is measured using a PerkinElmer Envision™ plate reader. IC50 values are calculated using a four-parameter logistic curve fit using Genedata Screener software.
For orientation: Cellular ATP, detected with luciferase, serves as a proxy for viable cell number.
As to `C[C@H](c1cccc(F)c1F)n1nc2c(c1Cl)CCN(c1cccc(Cl)c1F)C2=O` (single isomer, unassigned) [Example 55a], the IC50 was greater than 10000 nM.
The molecule `C[C@@H](c1cccc(F)c1F)n1nc2c(c1Cl)CCN(c1cccc(Cl)c1F)C2=O` (single isomer, unassigned) [Example 55b] had an IC50 of 6390 nM.
The molecule `C[C@@H](c1cccc(C#N)c1)n1cnc(C(=O)Nc2cccc(Cl)c2F)n1` (single isomer, unassigned) [Example 56b] had an IC50 greater than 10000 nM.
In the case of `O=C1c2nn(Cc3cccc(F)c3F)c(Cl)c2CCN1c1cccc(Cl)c1F` [Example 1, 3-chloro-6-(3-chloro-2-fluoro-phenyl)-2-[(2,3-difluorophenyl)methyl]-4,5-dihydropyrazolo[3,4-c]pyridin-7-one], the IC50 is 34.2 nM.
Consider `CC(c1cccc(F)c1F)n1nc2c(c1Cl)CCN(c1cccc(Cl)c1F)C2=O` (stereo not shown) [Example 55, 3-chloro-6-(3-chloro-2-fluorophenyl)-2-(1-(2,3-difluorophenyl)ethyl)-2,4,5,6-tetrahydro-7H-pyrazolo[3,4-c]pyridin-7-one], for which the IC50 is greater than 10000 nM.
In turn, `CC(c1cccc(C#N)c1)n1cnc(C(=O)Nc2cccc(Cl)c2F)n1` (stereo not shown) [Example 56, N-(3-chloro-2-fluorophenyl)-1-(1-(3-cyanophenyl)ethyl)-1H-1,2,4-triazole-3-carboxamide] had an IC50 of 1510 nM.
`N#Cc1cccc(Cn2nc3c(c2Cl)CCN(c2cccc(Cl)c2F)C3=O)c1` [Example 58, 3-((3-Chloro-6-(3-chloro-2-fluorophenyl)-7-oxo-4,5,6,7-tetrahydro-2H-pyrazolo[3,4-c]pyridin-2-yl)methyl)benzonitrile] displayed a 50% inhibitory concentration (IC50) of 95.9 nM.
Molecule `N#Cc1cccc(Cn2cc3c(n2)C(=O)N(c2cccc(Cl)c2F)CC3)c1` [Example 59, 3-((6-(3-chloro-2-fluorophenyl)-7-oxo-4,5,6,7-tetrahydro-2H-pyrazolo[3,4-c]pyridin-2-yl)methyl)benzonitrile] yielded a concentration for half-maximal inhibition (IC50) of 811 nM.
`Nc1c2c(nn1Cc1ccccc1)C(=O)N(c1cccc(Cl)c1F)CC2` [Example 60, 3-amino-2-benzyl-6-(3-chloro-2-fluorophenyl)-2,4,5,6-tetrahydro-7H-pyrazolo[3,4-c]pyridin-7-one] returned an IC50 of 1260 nM.
To `O=C1c2nn(Cc3ccccc3)c(Br)c2CCN1c1cccc(Cl)c1F` [Example 61, 2-benzyl-3-bromo-6-(3-chloro-2-fluorophenyl)-2,4,5,6-tetrahydro-7H-pyrazolo[3,4-c]pyridin-7-one] belongs 44.6 nM; to `O=C1c2nn(Cc3cnccn3)c(Cl)c2CCN1c1cccc(Cl)c1F` [Example 62, 3-chloro-6-(3-chloro-2-fluorophenyl)-2-(pyrazin-2-yl-methyl)-2,4,5,6-tetrahydro-7H-pyrazolo[3,4-c]pyridin-7-one], 53.7 nM; to `O=C1c2nn(Cc3ncccc3F)c(Cl)c2CCN1c1cccc(Cl)c1F` [Example 63, 3-chloro-6-(3-chloro-2-fluorophenyl)-2-((3-fluoropyridin-2-yl)methyl)-2,4,5,6-tetrahydro-7H-pyrazolo[3,4-c]pyridin-7-one], 64.1 nM.
To `O=C1c2nn(Cc3ncccc3Cl)c(Cl)c2CCN1c1cccc(Cl)c1F` [Example 64, 3-chloro-6-(3-chloro-2-fluorophenyl)-2-((3-chloropyridin-2-yl)methyl)-2,4,5,6-tetrahydro-7H-pyrazolo[3,4-c]pyridin-7-one] belongs 130 nM.
To `Cc1ccc(Cn2nc3c(c2Cl)CCN(c2cccc(Cl)c2F)C3=O)cc1` [Example 65, 3-chloro-6-(3-chloro-2-fluorophenyl)-2-(4-methylbenzyl)-2,4,5,6-tetrahydro-7H-pyrazolo[3,4-c]pyridin-7-one] belongs 207 nM.
In turn, `O=C1c2nn(Cc3ccc(F)cc3)c(Cl)c2CCN1c1cccc(Cl)c1F` [Example 66, 3-chloro-6-(3-chloro-2-fluorophenyl)-2-(4-fluorobenzyl)-2,4,5,6-tetrahydro-7H-pyrazolo[3,4-c]pyridin-7-one] showed an IC50 of 291 nM.
`Cc1cccc(Cn2nc3c(c2Cl)CCN(c2cccc(Cl)c2F)C3=O)c1` [Example 67, 3-chloro-6-(3-chloro-2-fluorophenyl)-2-(3-methylbenzyl)-2,4,5,6-tetrahydro-7H-pyrazolo[3,4-c]pyridin-7-one] yielded an IC50 of 444 nM.
`Cn1cc(Cn2nc3c(c2Cl)CCN(c2cccc(Cl)c2F)C3=O)cn1` [Example 68, 3-chloro-6-(3-chloro-2-fluorophenyl)-2-((1-methyl-1H-pyrazol-4-yl)-methyl)-2,4,5,6-tetrahydro-7H-pyrazolo[3,4-c]pyridin-7-one] came in with an IC50 of 1340 nM.
On to `O=C1c2nn(CC3CCCOC3)c(Cl)c2CCN1c1cccc(Cl)c1F` (stereo not shown) [Example 69, 3-chloro-6-(3-chloro-2-fluorophenyl)-2-((tetrahydro-2H-pyran-3-yl)methyl)-2,4,5,6-tetrahydro-7H-pyrazolo[3,4-c]pyridin-7-one], for which half-maximal inhibition (IC50) required 563 nM.
`Cc1c2c(nn1Cc1ccccc1)C(=O)N(c1cccc(Cl)c1F)CC2` [Example 70, 2-benzyl-6-(3-chloro-2-fluorophenyl)-3-methyl-2,4,5,6-tetrahydro-7H-pyrazolo[3,4-c]pyridin-7-one] displayed an IC50 of 233 nM.
With `N#Cc1c2c(nn1Cc1ccccc1)C(=O)N(c1cccc(Cl)c1F)CC2` [Example 71, 2-benzyl-6-(3-chloro-2-fluorophenyl)-7-oxo-4,5,6,7-tetrahydro-2H-pyrazolo[3,4-c]pyridine-3-carbonitrile], the IC50 worked out at 256 nM.
Take `NCc1c2c(nn1Cc1ccccc1)C(=O)N(c1cccc(Cl)c1F)CC2` [Example 72, 3-(aminomethyl)-2-benzyl-6-(3-chloro-2-fluorophenyl)-2,4,5,6-tetrahydro-7H-pyrazolo[3,4-c]pyridin-7-one]: the IC50 was found to be 6110 nM.
Regarding `O=C1c2nn(Cc3ccccc3)c(CO)c2CCN1c1cccc(Cl)c1F` [Example 73, 2-benzyl-6-(3-chloro-2-fluorophenyl)-3-(hydroxymethyl)-2,4,5,6-tetrahydro-7H-pyrazolo[3,4-c]pyridin-7-one], half-maximal inhibition (IC50) was put at 348 nM. This IC50 lies about 18-fold lower than the previous one.
Regarding `O=C1c2nn(Cc3ccccc3)c(C(F)F)c2CCN1c1cccc(Cl)c1F` [Example 74, 2-Benzyl-6-(3-chloro-2-fluorophenyl)-3-(difluoromethyl)-2,4,5,6-tetrahydro-7H-pyrazolo[3,4-c]pyridin-7-one], half-maximal inhibition (IC50) required 42 nM.
In turn, `O=C1c2nn(Cc3ncccc3F)c(Cl)c2CCN1c1cc(CO)cc(Cl)c1F` [Example 76, 3-chloro-6-(3-chloro-2-fluoro-5-(hydroxymethyl)phenyl)-2-((3-fluoropyridin-2-yl)methyl)-2,4,5,6-tetrahydro-7H-pyrazolo[3,4-c]pyridin-7-one] had an IC50 of 917 nM. This IC50 is about 22-fold higher than that of the molecule before.
`O=C1c2nn(Cc3ncccc3F)cc2CCN1c1cc(CO)cc(Cl)c1F` [Example 77, 6-(3-chloro-2-fluoro-5-(hydroxymethyl)phenyl)-2-((3-fluoropyridin-2-yl)methyl)-2,4,5,6-tetrahydro-7H-pyrazolo[3,4-c]pyridin-7-one] returned an IC50 of 594 nM.
For `CN(C)Cc1cc(Cl)c(F)c(N2CCc3c(nn(Cc4ncccc4F)c3Cl)C2=O)c1` [Example 78, 3-chloro-6-(3-chloro-5-((dimethylamino)methyl)-2-fluorophenyl)-2-((3-fluoropyridin-2-yl)methyl)-2,4,5,6-tetrahydro-7H-pyrazolo[3,4-c]pyridin-7-one] the value was greater than 10000 nM; for `O=C1c2nn(Cc3cccc(F)c3F)c(Cl)c2CCN1c1cc(CO)cc(Cl)c1F` [Example 79, 3-chloro-6-(3-chloro-2-fluoro-5-(hydroxymethyl)phenyl)-2-(2,3-difluorobenzyl)-2,4,5,6-tetrahydro-7H-pyrazolo[3,4-c]pyridin-7-one], 346 nM.
The molecule `COCCOCc1cc(Cl)c(F)c(N2CCc3c(nn(Cc4cccc(F)c4F)c3Cl)C2=O)c1` [Example 80, 3-chloro-6-(3-chloro-2-fluoro-5-((2-methoxyethoxy)methyl)phenyl)-2-(2,3-difluorobenzyl)-2,4,5,6-tetrahydro-7H-pyrazolo[3,4-c]pyridin-7-one] showed an IC50 of 958 nM.
The molecule `COCc1cc(Cl)c(F)c(N2CCc3c(nn(Cc4cccc(F)c4F)c3Cl)C2=O)c1` [Example 81, 3-chloro-6-(3-chloro-2-fluoro-5-(methoxymethyl)phenyl)-2-(2,3-difluorobenzyl)-2,4,5,6-tetrahydro-7H-pyrazolo[3,4-c]pyridin-7-one] had an IC50 greater than 10000 nM.
For `O=C1c2nn(Cc3cccc(F)c3F)c(Cl)c2CCN1c1cc(Cn2ccnc2)cc(Cl)c1F` [Example 82, 6-(5-((1H-imidazol-1-yl)methyl)-3-chloro-2-fluorophenyl)-3-chloro-2-(2,3-difluorobenzyl)-2,4,5,6-tetrahydro-7H-pyrazolo[3,4-c]pyridin-7-one], the IC50 stood at 863 nM.
The molecule `O=C1c2nn(Cc3cccc(F)c3F)c(Cl)c2CCN1c1cc(CNCC(F)(F)F)cc(Cl)c1F` [Example 83, 3-chloro-6-(3-chloro-2-fluoro-5-(((2,2,2-trifluoroethyl)amino)methyl)phenyl)-2-(2,3-difluorobenzyl)-2,4,5,6-tetrahydro-7H-pyrazolo[3,4-c]pyridin-7-one] showed an IC50 of 1230 nM.
